Results from US20220233512A1, “INHIBITING AN IMMUNE RESPONSE MEDIATED BY ONE OR MORE OF TLR2, RAGE, CCR5, CXCR4 AND CD4” (priority 2020, published 2022).

Molecular target: T1, mu opiate receptor (MOR) (Rattus norvegicus, UniProt P33535)
T1 construct: from tissue; host or cells: striatum (membrane preparation)
Assay: MOR agonist activity using [35S]GTPgS binding assay in striatal membranes
Format: biochemical
Set-up: MOR agonist activity (preliminary study): unit of the concentration uncertain
Settings: for MOR agonist activity (preliminary study): average of two runs
Method: To assess the mu opiate receptor (MOR) agonist activity of positive compounds from the FLNA screening, compounds were tested in a [^35S]GTPgS binding assay using striatal membranes. […] This assay measures a functional consequence of receptor occupancy at one of the earliest receptor-mediated events. The assay permits for traditional pharmacological parameters of potency, efficacy and antagonist affinity, with the advantage that agonist measures are not subjected to amplification or other modulation that may occur when analyzing parameters further downstream of the receptor.
Thus, striatal tissue was homogenized in 10 volumes of ice cold 25 mM HEPES buffer, pH 7.4, which contained 1 mM EGTA, 100 mM sucrose, 50 mg/ml leupeptin, 0.04 mM PMSF, 2 mg/ml soybean trypsin inhibitor and 0.2% 2-mercaptoethanol. The homogenates were centrifuged at 800×g for 5 minutes and the supernatants were centrifuged at 49,000×g for 20 minutes. The resulting pellets were suspended in 10 volume of reaction buffer, which contained 25 mM HEPES, pH 7.5, 100 mM NaCl, 50 mg/ml leupeptin, 2 mg/ml soybean trypsin inhibitor, 0.04 mM PMSF and 0.02% […].
The resultant striatal membrane preparation (200 mg) was admixed and maintained (incubated) at 30° C. for 5 minutes in reaction buffer as above that additionally contained 1 mM MgCl2 and 0.5 nM [^35S]GTPgS (0.1 mCi/assay, PerkinElmer Life and Analytical Sciences) in a total volume of 250 ml and continued for 5 minutes in the absence or presence of 0.1-10 mM of an assayed compound of interest. The reaction was terminated by dilution with 750 ml of ice-cold reaction buffer that contained 20 mM MgCl2 and 1 mM EGTA and immediate centrifugation at 16,000×g for 5 minutes.
The resulting pellet was solubilized by sonicating for 10 seconds in 0.5 ml of immunoprecipitation buffer containing 0.5% digitonin, 0.2% sodium cholate and 0.5% NP-40. Normal rabbit serum (1 ml) was added to 1 ml of lysate and incubated at 25° C. for 30 minutes. Nonspecific immune complexes were removed by incubation with 25 ml of protein A/G-conjugated agarose beads at 25° C. for 30 minutes followed by centrifugation at 5,000×g at 4° C. for 5 minutes. The supernatant was divided and separately incubated at 25° C. for 30 minutes with antibodies raised against Gao proteins (1:1,000 dilutions).
The immunocomplexes so formed were collected by incubation at 25° C. for 30 minutes with 40 ml of agarose-conjugated protein A/G beads and centrifugation at 5,000×g at 4° C. for 5 minutes. The pellet was washed and suspended in buffer containing 50 mM Tris-HCl, pH 8.0, and 1% NP-40. The radioactivity in the suspension was determined by liquid scintillation spectrometry. […] DAMGO (1 or 10 mM) was used as a positive control.

[1] = 0.1 μM compound as agonist, Series C-2 table
[2] = 1 μM compound as agonist, Series C-2 table
[3] = 0.1 μM compound as agonist, Series C-1 table
[4] = 1 μM compound as agonist, Series C-1 table

T1 sequence (P33535 whole entry): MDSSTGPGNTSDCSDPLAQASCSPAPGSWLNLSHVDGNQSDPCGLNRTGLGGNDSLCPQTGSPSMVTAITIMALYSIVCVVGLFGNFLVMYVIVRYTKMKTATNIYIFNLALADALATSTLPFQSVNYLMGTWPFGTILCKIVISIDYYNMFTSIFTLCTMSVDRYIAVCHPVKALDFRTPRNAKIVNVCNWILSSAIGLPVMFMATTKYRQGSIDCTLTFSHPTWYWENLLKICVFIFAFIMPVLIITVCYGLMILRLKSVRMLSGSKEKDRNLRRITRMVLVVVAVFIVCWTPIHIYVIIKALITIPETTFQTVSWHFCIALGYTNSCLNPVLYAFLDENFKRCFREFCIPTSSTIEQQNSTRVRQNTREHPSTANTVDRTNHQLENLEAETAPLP

SMILES | MOR agonist activity ([35S]GTPgS binding to Gao) [1] [%] | MOR agonist activity ([35S]GTPgS binding to Gao) (1 μM + BFNA, Series C-2 table) [%] | MOR agonist activity ([35S]GTPgS binding to Gao) [2] [%] | MOR agonist activity ([35S]GTPgS binding to Gao) [3] [%] | MOR agonist activity ([35S]GTPgS binding to Gao) (1 μM + BFNA, Series C-1 table) [%] | MOR agonist activity ([35S]GTPgS binding to Gao) [4] [%] | further results
CCN1CCC2(CC1)OCCN2S(=O)(=O)c1ccc(C(C)=O)cc1 [Compound C0094M] | 172.5 | 115.3 | 263.5 |  |  |  | 
N#Cc1ccccc1S(=O)(=O)N1CCC2(CC1)OCCN2S(=O)(=O)c1ccccc1C#N [Compound C0004] |  |  |  | 122.0 | 65.8 | 228.4 | 
COc1ccccc1S(=O)(=O)N1CCC2(CC1)OCCN2S(=O)(=O)c1ccccc1OC [Compound C0003] |  |  |  | 162.3 | 107.7 | 215.9 | 
O=C(OCc1ccccc1)c1ccc(S(=O)(=O)N2CCC3(CC2)OCCN3S(=O)(=O)c2ccc(C(=O)OCc3ccccc3)cc2)cc1 [Compound C0042] |  |  |  | 167.1 | 110.6 | 260.9 | 
O=C1CN(C2CCc3ccccc3C2)C2(CCN(S(=O)(=O)c3ccccc3)CC2)N1 (stereo not drawn) [C0136M/ (P5)] | 176.8 | 74.5 | 237.3 |  |  |  | 
COc1cc(S(=O)(=O)N2CCC3(CC2)OCCN3S(=O)(=O)c2cc(OC)c(OC)c(OC)c2)cc(OC)c1OC [Compound C0062] |  |  |  | 127.8 | 59.8 | 310.5 | 
COc1ccc(S(=O)(=O)N2CCC3(CC2)OCCN3S(=O)(=O)c2ccc(OC)c(OC)c2)cc1OC [Compound C0049] |  |  |  | 106.6 | 81.0 | 210.0 | 
CC(=O)c1ccc(S(=O)(=O)N2CCC3(CC2)NC(=O)CN3Cc2ccccc2)cc1 [Compound C0085M] |  |  |  | 211.6 | 43.7 | 246.2 | 
O=C1CNC2(CCNCC2)N1Cc1ccccc1 [Compound C0114M] | 114.0 | 35.9 | 144.3 |  |  |  | 
O=S(=O)(c1csc2ccccc12)N1CCC2(CC1)OCCN2S(=O)(=O)c1csc2ccccc12 [Compound C0150M] |  |  |  | 167.1 | 93.4 | 423.1 | 
CC(=O)c1ccc(S(=O)(=O)N2CC(=O)NC23CCNCC3)cc1 [Compound C0086M] | 206.8 | 152.3 | 265.3 |  |  |  | 
O=[N+]([O-])c1ccc(S(=O)(=O)N2CCC3(CC2)NCCS3)cc1 [Compound C0044] | 173.7 | 59.1 | 280.1 |  |  |  | 
CCCCN1CCC2(CC1)OCCN2S(=O)(=O)c1ccc(C(C)=O)cc1 [Compound C0101M] | 138.2 | 174.8 | 274.3 |  |  |  | 
CCOC(=O)CN1CCC2(CC1)OCCN2S(=O)(=O)c1ccc(C(C)=O)cc1 [Compound C0099M] | 157.2 | 114.7 | 195.7 |  |  |  | 
COc1ccc(S(=O)(=O)N2CCC3(NCCO3)C3CCCCC32)cc1 (stereo not drawn) [Compound C0144M-2] | 186.3 | 125.9 | 295.9 |  |  |  | 
O=S(=O)(c1ccccc1Oc1ccccc1)N1CCC2(CC1)NCCO2 [Compound C0149M-2] | 209.8 | 93.4 | 406.7 |  |  |  | 

SMILES | MOR agonist activity ([35S]GTPgS binding to Gao) [1] [%] | MOR agonist activity ([35S]GTPgS binding to Gao) (1 μM + BFNA, Series C-2 table) [%] | MOR agonist activity ([35S]GTPgS binding to Gao) [2] [%] | MOR agonist activity ([35S]GTPgS binding to Gao) [3] [%] | MOR agonist activity ([35S]GTPgS binding to Gao) (1 μM + BFNA, Series C-1 table) [%] | MOR agonist activity ([35S]GTPgS binding to Gao) [4] [%] | further results
O=S(=O)(c1ccc(F)cc1)N1CCC2(CC1)OCCN2S(=O)(=O)c1ccc(F)cc1 [Compound C0029] |  |  |  | 175.4 | 16.6 | 308.8 | 
CC(=O)c1ccc(C(=O)N2CCC3(CC2)OCCN3S(=O)(=O)c2ccc(C(C)=O)cc2)cc1 [Compound C0052] |  |  |  | 108.4 | 42.7 | 162.8 | 
C=CCN1CCC2(CC1)OCCN2S(=O)(=O)c1ccc(C)cc1 [Compound 10] |  |  |  |  |  |  | MOR agonist activity (preliminary study) (1 mM + bNFA): 60.4%; MOR agonist activity (preliminary study) (0.1 (unit uncertain) compound as agonist): 163.1%; MOR agonist activity (preliminary study) (1 (unit uncertain) compound as agonist): 191.8%
O=[N+]([O-])c1ccc(S(=O)(=O)N2CCC3(CC2)NCCO3)cc1 [Compound C0040] | 145.8 | 90.4 | 308.3 |  |  |  | 
CN1CCC2(CC1)OCCN2S(=O)(=O)c1ccc(S(C)(=O)=O)cc1 [Compound C0106M] | 171.8 | 117.2 | 240.7 |  |  |  | 
COc1ccc(S(=O)(=O)N2CCC3(CC2)NCCO3)cc1 [Compound C0026] | 207.2 | 21.2 | 288.4 |  |  |  | 
O=S(=O)(c1ccc(Oc2ccccc2)cc1)N1CCC2(CC1)OCCN2S(=O)(=O)c1ccc(Oc2ccccc2)cc1 [Compound C0149M] |  |  |  | 209.8 | 93.4 | 406.7 | 
Cc1cccc(S(=O)(=O)N2CCC3(CC2)OCCN3S(=O)(=O)c2cccc(C)c2)c1 [Compound C0014] |  |  |  | 144.9 | 76.3 | 153.5 | 
O=S(=O)(c1ccc(OC(F)(F)F)cc1)N1CCC2(CC1)OCCN2S(=O)(=O)c1ccc(OC(F)(F)F)cc1 [Compound C0006] |  |  |  | 121.5 | 4.6 | 204.0 | 
COc1ccc(S(=O)(=O)N2CCC3(CC2)OCCN3S(=O)(=O)c2ccc(C(C)=O)cc2)cc1 [Compound C0048] |  |  |  | 209.1 | 89.9 | 245.3 | 
O=S(=O)(c1cccs1)N1CCC2(CC1)OCCN2S(=O)(=O)c1cccs1 [Compound C0141M] |  |  |  | 161.5 | 47.9 | 213.9 | 
CC(=O)Nc1ccc(S(=O)(=O)N2CCC3(CC2)OCCN3S(=O)(=O)c2ccc(NC(C)=O)cc2)cc1 [Compound C0013] |  |  |  | 156.6 | 39.6 | 301.2 | 
CNc1ccc(S(=O)(=O)N2CCC3(CC2)OCCN3S(=O)(=O)c2ccc(NC)cc2)cc1 [Compound C0024] |  |  |  | 178.4 | 59.3 | 229.6 | 
O=S(=O)(c1ccc(C(F)(F)F)cc1)N1CCC2(CC1)OCCN2S(=O)(=O)c1ccc(C(F)(F)F)cc1 [Compound C0012] |  |  |  | 96.8 | 184.4 | 224.8 | 
COc1ccc(C(=O)N2CCC3(CC2)OCCN3S(=O)(=O)c2ccc(OC)cc2)cc1 [Compound C0018] |  |  |  | 195.5 | 106.5 | 247.7 | 
